Ki data for 10 molecules are collected here from patent US5998666A, “Phenoxyethylamine derivatives, method of preparation, application as medicine and pharmaceutical compositions containing same” (Societe de Conseils de Recherches Et d'Applications …, priority 1996, dated 1999).

A word on the pKi: it is −log10 of the Ki, conventionally taken in molar units. Higher therefore signals a small Ki.

pKi: −log10 of the molar value.

The target of this test is T1, 5-HT1A receptor (Rattus norvegicus, UniProt P19327).
T1 construct: from tissue; host or cells: cerebral cortex membranes of male Sprague Dawley rats
T1 sequence (P19327 1-422): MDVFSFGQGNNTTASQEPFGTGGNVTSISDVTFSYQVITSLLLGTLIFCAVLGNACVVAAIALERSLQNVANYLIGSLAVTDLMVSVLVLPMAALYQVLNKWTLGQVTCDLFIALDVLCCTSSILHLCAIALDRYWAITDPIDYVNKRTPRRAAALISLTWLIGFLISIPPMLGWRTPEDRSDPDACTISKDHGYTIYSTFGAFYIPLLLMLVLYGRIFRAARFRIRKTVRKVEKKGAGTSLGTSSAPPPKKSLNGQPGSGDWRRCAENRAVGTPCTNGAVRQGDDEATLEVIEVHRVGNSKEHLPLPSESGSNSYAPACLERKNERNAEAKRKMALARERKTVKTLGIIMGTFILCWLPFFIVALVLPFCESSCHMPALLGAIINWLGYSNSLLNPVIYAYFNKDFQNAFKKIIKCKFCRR
The test can be described thus: Affinity for 5-HT1A receptor: inhibition of [3H]8-OH-DPAT binding to rat cerebral cortex membranes. The note with it: [3H]8-OH-DPAT (1 nM), 30 min at 25° C., Tris-HCl 50 mM, pH=7.4. The method, then:
The affinity of the compounds for serotonergic 5-HT1A receptors is determined by measuring the inhibition of [3H]8-hydroxy-2-(di-n-propylaminotetralin ([3H]8-OH-DPAT) bound to the cerebral cortex of the rat, according to the method of Peroutka and his coworkers [(J. Neurochem., 47, 529 (1986)].
Cerebral cortices of male Sprague Dawley rats are homogenised in Tris-HCl 50 mM, pH=7.4 and centrifuged at 40,000 g for 10 min at 4° C. Pellets are resuspended in the same buffer and incubated for 10 min at 37° C., and the homogenised products are centrifuged again at 40,000 g for 10 min at 4° C.
Competitive inhibition tests of [3H]8-OH-DPAT binding are carried out three times with unlabelled competitors, with concentrations between 100 pM and 100 μM. Cerebral cortex membranes of rats (10 mg wet weight/ml) are incubated with [3H]8-OH-DPAT (1 nM) for 30 min at 25° C. in Tris-HCl 50 mM, pH=7.4 containing 4 mM of CaCl2, […] of paragyline and 0.1% of ascorbic acid.
The bound [3H]8-OH-DPAT is separated from free [3H]8-OH-DPAT by immediate filtration by means of Whatman GF/B glass fibre filters using a Brandel cell recovery device. The filters are washed three times with the same buffer at 0-4° C. and their radioactivity is studied by means of a liquid scintillation spectrometer.
The specific binding is obtained by subtracting the binding determined in the presence of […] of 8-OH-DPAT from the total binding. The characteristics of the binding are analysed by iterative analysis of the non-linear regression by computer, using the Ligand program [Munson and Rodbard, Anal. Biochem., 107, 220 (1980)].
`COc1ccccc1OCCNCCCCC(=O)NC(C)(C)C` [Compound 1, N-tert-butyl-5-[{2-(2-methoxyphenoxy)ethyl}amino]pentanamide] gave a pKi of 9.27.

Turning to `COc1ccccc1OCCNCCCCC(=O)NC1CCCCC1` [Compound 2, N-cyclohexyl-5-[{2-(2-methoxyphenoxy)ethyl}amino]pentanamide], the pKi is 9.72.

`COc1ccccc1OCCNCCCCC(=O)NCC(C)(C)C` [Compound 3, N-neopentyl-5-[{2-(2-methoxyphenoxyl)ethyl}amino]pentanamide] showed a pKi of 9.49.

In turn, `COc1ccccc1OCCNCCCCC(=O)NC1CCCC1` [Compound 4, N-cyclopentyl-5-[{2-(2-methoxyphenoxy)ethyl}amino]pentanamide] showed a negative-log Ki (pKi) of 9.54.

`COc1ccccc1OCCNCCCCC(=O)NC1CCCCCC1` [Compound 5, N-cycloheptyl-5-[{2-(2-methoxyphenoxy)ethyl}amino]pentanamide] showed a pKi of 10.01.

`CC(C)(C)CNC(=O)CCCCNCCOc1cccc(NC(N)=O)c1` [Compound 9, N-neopentyl-5-[{2-(3-(aminocarbonylamino)phenoxy)ethyl}-amino]pentanamide]: the pKi is 9.39.

For the molecule `NC(=O)Nc1cccc(OCCNCCCCC(=O)NC2CCCCCC2)c1` [Compound 10, N-cyclcoheptyl-5-[{2-(3-(aminocarbonylamino)phenoxy)ethyl}amino]pentanamide], the pKi was 9.89.

On to `CC(=O)Nc1cccc(OCCNCCCCC(=O)NC2CCCCC2)c1` [Compound 11, N-cyclohexyl-5-[{2-(3-(methylcarbonylamino)phenoxy)ethyl}amino]pentanamide], for which the pKi is 9.43.

`CC(=O)Nc1cccc(OCCNCCCCC(=O)NCC(C)(C)C)c1` [Compound 12, N-neopentyl-5-[{2-(3-(methylcarbonylamino)phenoxy)ethyl}-amino]pentanamide]: the pKi was 9.06.

`COC(=O)Nc1cccc(OCCNCCCCC(=O)NCC(C)(C)C)c1` [Compound 13, N-neopentyl-5-[{2-(3-(methoxycarbonylamino)phenoxy)ethyl}amino]pentanamide]: the pKi was 9.08.
